Test results reported in patent publication US5527781A, “4-O-(aminoglycosyl)- or 4,6-di-O-(aminoglycosyl)-2,5-dideoxy-5,5-difluorostreptamine derivatives” (Zaidan Hojin Biseibutsu Kagaku Kenkyu Kai, priority 1990, dated 1996).
Values after ≈ are worked out from the molar mass of the structure shown. Like-named read-outs stand apart in the source and are kept apart here.

Legend:
[1] = tested on: Staphylococcus aureus Ap01; experiment: MIC, standard serial dilution method; type: cell-based; details: resistance mechanism ANT(4'), Mueller-Hinton agar, 37° C
[2] = tested on: Escherichia coli K-12; experiment: MIC, standard serial dilution method; type: cell-based; details: K12
[3] = tested on: Escherichia coli K-12 ML 1629; experiment: microbe, parasite or virus in culture; type: cell-based; details: K12ML1629
[4] = tested on: Escherichia coli K-12 LA 290 R55; experiment: microbe, parasite or virus in culture; type: cell-based; details: K12LA290R55; Escherichia coli K-12 LA 290 R55; resistance mechanism ANT(2"); Mueller-Hinton agar, 37° C
[5] = tested on: Escherichia coli JR225; experiment: microbe, parasite or virus in culture; type: cell-based; details: resistance mechanism AAC(3), Mueller-Hinton agar, 37° C
[6] = tested on: Mycobacterium 607; experiment: MIC, standard serial dilution method; type: cell-based; details: Mueller-Hinton agar, 37° C
[7] = tested on: Klebsiella pneumoniae 22#3038; experiment: MIC, standard serial dilution method; type: cell-based; details: resistance mechanism APH(3')-II, ANT(2"), Mueller-Hinton agar, 37° C
[8] = tested on: Serratia marcescens; experiment: MIC, standard serial dilution method; type: cell-based; details: Mueller-Hinton agar, 37° C
[9] = tested on: Providencia sp. Pv 16; experiment: MIC, standard serial dilution method; type: cell-based; details: SP.PV16, resistance mechanism AAC(2'), Mueller-Hinton agar, 37° C
[10] = tested on: Pseudomonas aeruginosa A3; experiment: MIC, standard serial dilution method; type: cell-based; details: Mueller-Hinton agar, 37° C
[11] = tested on: Pseudomonas aeruginosa GN 315; experiment: MIC, standard serial dilution method; type: cell-based; details: GN315
[12] = tested on: Staphylococcus aureus 209P; experiment: MIC, standard serial dilution method; type: cell-based; details: Mueller-Hinton agar, 37° C
[13] = tested on: Bacillus subtilis PCI219; experiment: MIC, standard serial dilution method; type: cell-based; details: Mueller-Hinton agar, 37° C
[14] = tested on: Corynebacterium bovis 1810; experiment: MIC, standard serial dilution method; type: cell-based; details: Mueller-Hinton agar, 37° C
[15] = tested on: Escherichia coli K-12 R5; experiment: microbe, parasite or virus in culture; type: cell-based; details: K12R5; Escherichia coli K-12 R5; resistance mechanism AAC(6'); Mueller-Hinton agar, 37° C
[16] = tested on: Proteus rettgeri GN 311; experiment: MIC, standard serial dilution method; type: cell-based; details: Providencia rettgeri, GN311; Proteus rettgeri GN 311; Mueller-Hinton agar, 37° C; read-out: MIC
[17] = in vivo; details: mouse, iv, pH 7
Description: Further, in order to estimate acute toxicity of the compound of the general formula (I) according to this invention, some examples of the compounds of this invention were independently dissolved in water to prepare aqueous solutions (as adjusted to pH 7 by addition of hydrochloric acid). […] The tested compounds of this invention are expressed by the same abbreviations as in Table 1. […] The comparative compounds as tested are also expressed by the same abbreviations as in Table 1.

[18] = Escherichia coli K-12, Mueller-Hinton agar, 37° C, read-out: MIC
[19] = Escherichia coli K-12 ML 1629, resistance mechanism APH(3')-I, Mueller-Hinton agar, 37° C, read-out: MIC
[20] = Pseudomonas aeruginosa GN 315, resistance mechanism AAC(6'), Mueller-Hinton agar, 37° C, read-out: MIC

NCC[C@H](O)C(=O)N[C@@H]1C[C@H](N)[C@@H](O[C@H]2O[C@H](CN)[C@@H](O)C[C@H]2N)[C@H](F)[C@H]1O[C@H]1O[C@H](CO)[C@@H](O)[C@H](N)[C@H]1O [Compound 5F-TOB-AHB, 1-N-[4-amino-2-(S)-hydroxybutyryl]-5,3'-dideoxy-5-fluorokanamycinB, reference compound]
MIC [1]: 3.12 µg/mL (≈ 5.47 µM) | MIC [2, 18]: < 0.2 µg/mL | MIC [3, 19]: 0.39 µg/mL (≈ 0.683 µM) | MIC [4]: 0.39 µg/mL (≈ 0.683 µM) | MIC [5]: < 0.2 µg/mL | MIC [6]: 0.39 µg/mL (≈ 0.683 µM) | MIC [7]: 0.78 µg/mL (≈ 1.37 µM) | MIC [8]: 3.12 µg/mL (≈ 5.47 µM) | MIC [9]: 0.39 µg/mL (≈ 0.683 µM) | MIC [10]: < 0.2 µg/mL | MIC [11, 20]: 1.56 µg/mL (≈ 2.73 µM)

NC[C@H]1O[C@H](O[C@@H]2[C@@H](N)C[C@@H](N)[C@H](O[C@H]3O[C@H](CO)[C@@H](O)[C@H](N)[C@H]3O)C2(F)F)[C@H](O)[C@@H](O)[C@@H]1O [Compound 5FF-KMA, 5-deoxy-5,5-difluorokanamycin A]
MIC [12]: 3.12 µg/mL (≈ 6.18 µM) | MIC [1]: 50 µg/mL (≈ 99.1 µM) | MIC [13]: 0.78 µg/mL (≈ 1.55 µM) | MIC [14]: 12.5 µg/mL (≈ 24.8 µM) | MIC ([2]; Escherichia coli): 0.78 µg/mL (≈ 1.55 µM) | MIC [15]: > 100 µg/mL | MIC [3, 19]: > 100 µg/mL | MIC [4]: 12.5 µg/mL (≈ 24.8 µM) | MIC [5]: 1.56 µg/mL (≈ 3.09 µM) | MIC [6]: 3.12 µg/mL (≈ 6.18 µM) | MIC [16]: 1.56 µg/mL (≈ 3.09 µM) | MIC [8]: 12.5 µg/mL (≈ 24.8 µM) | MIC [9]: 12.5 µg/mL (≈ 24.8 µM) | MIC [10]: 6.25 µg/mL (≈ 12.4 µM) | MIC [11, 20]: > 100 µg/mL | LD50 [17]: > 300 mg/kg

NC[C@H]1O[C@H](O[C@@H]2[C@@H](N)C[C@@H](N)[C@H](O[C@H]3O[C@H](CO)[C@@H](O)[C@H](N)[C@H]3O)C2(F)F)[C@H](N)[C@@H](O)[C@@H]1O [Compound 5FF-KMB, 5-deoxy-5,5-difluorokanamycin B]
MIC [12]: 0.78 µg/mL (≈ 1.55 µM) | MIC [1]: 50 µg/mL (≈ 99.3 µM) | MIC [13]: 0.39 µg/mL (≈ 0.775 µM) | MIC [14]: 1.56 µg/mL (≈ 3.1 µM) | MIC [2, 18]: 0.39 µg/mL (≈ 0.775 µM) | MIC [15]: 100 µg/mL (≈ 199 µM) | MIC [3, 19]: > 100 µg/mL | MIC [4]: 3.12 µg/mL (≈ 6.2 µM) | MIC [5]: 3.12 µg/mL (≈ 6.2 µM) | MIC [6]: 1.56 µg/mL (≈ 3.1 µM) | MIC [16]: 0.39 µg/mL (≈ 0.775 µM) | MIC [8]: 6.25 µg/mL (≈ 12.4 µM) | MIC [9]: 12.5 µg/mL (≈ 24.8 µM) | MIC [10]: 3.12 µg/mL (≈ 6.2 µM) | MIC [11, 20]: > 100 µg/mL

NC[C@@H]1CC[C@@H](N)[C@@H](O[C@H]2[C@H](O)[C@@H](O[C@H]3O[C@H](CO)[C@@H](O)[C@H](N)[C@H]3O)[C@H](N)C[C@@H]2N)O1 [DKB, 3',4'-dideoxy-kanamycin B, reference compound]
MIC [13]: < 0.2 µg/mL | MIC [2, 18]: 0.39 µg/mL (≈ 0.864 µM) | MIC [7]: 50 µg/mL (≈ 111 µM) | MIC [16]: < 0.2 µg/mL | MIC ([11]; Pseudomonas aeruginosa): 100 µg/mL (≈ 221 µM)

NCC[C@H](O)C(=O)N[C@@H]1C[C@H](N)[C@@H](O[C@H]2O[C@H](CN)CC[C@H]2N)[C@H](O)[C@H]1O[C@H]1O[C@H](CO)[C@@H](O)[C@H](N)[C@H]1O [HBK, 1-N-[4-amino-(S)-2-hydroxybutyryl]-3',4'-dideoxykanamycin B, reference compound]
LD50 [17]: 70 mg/kg

NC[C@H]1O[C@H](O[C@H]2[C@H](O)[C@@H](O[C@H]3O[C@H](CO)[C@@H](O)[C@H](N)[C@H]3O)[C@H](N)C[C@@H]2N)[C@H](N)[C@@H](O)[C@@H]1O [KMB, kanamycin B, reference compound]
MIC [12]: 0.39 µg/mL (≈ 0.807 µM) | MIC [13]: < 0.2 µg/mL | MIC [2, 18]: 0.39 µg/mL (≈ 0.807 µM) | MIC [3, 19]: > 100 µg/mL | MIC [7]: > 100 µg/mL | MIC [16]: 0.2 µg/mL (≈ 0.414 µM) | MIC [9]: 12.5 µg/mL (≈ 25.9 µM) | MIC [10]: 1.56 µg/mL (≈ 3.23 µM)

NC[C@H]1O[C@H](O[C@H]2[C@H](O)[C@@H](O[C@H]3O[C@H](CO)[C@@H](O)[C@H](N)[C@H]3O)[C@H](N)C[C@@H]2N)[C@H](N)C[C@@H]1O [TOB, 3'-deoxykanamycin B, reference compound]
MIC [12]: < 0.2 µg/mL | MIC [1]: 12.5 µg/mL (≈ 26.7 µM) | MIC [13]: < 0.2 µg/mL | MIC [14]: 1.56 µg/mL (≈ 3.34 µM) | MIC [2, 18]: 0.39 µg/mL (≈ 0.834 µM) | MIC [15]: 25 µg/mL (≈ 53.5 µM) | MIC ([3]; Escherichia coli): 0.78 µg/mL (≈ 1.67 µM) | MIC [4]: 12.5 µg/mL (≈ 26.7 µM) | MIC [6]: 0.39 µg/mL (≈ 0.834 µM) | MIC [7]: 12.5 µg/mL (≈ 26.7 µM) | MIC [16]: 0.39 µg/mL (≈ 0.834 µM) | MIC [8]: 3.12 µg/mL (≈ 6.67 µM) | MIC [9]: 6.25 µg/mL (≈ 13.4 µM) | MIC [11, 20]: 25 µg/mL (≈ 53.5 µM) | LD50 [17]: ~80 mg/kg
